The test system of one assay is RKO cells. Kind of assay: cell proliferation assay, RKO cells. Type of assay: cell-based. The note with it: Homo sapiens. How it is done: Cell Proliferation Assay. 1×10^5 of indicated cells in each well of a 96-well plate were treated with indicated compounds for 24 h followed by addition of 0.11 μCi of [^3H]-thymidine (6.7 Ci/mmol) per well for 6 h, followed by harvesting to GF/C filtermats using a cell harvester. Filtermats were air-dried and scintillation counted. IC50s were determined from quadruplicate data readings and curve-fitting analysis.

The test system of a further assay is HeLa cells. The assay is classed as cell-based.
In the next assay the test system is 293T cells. The assay can be described thus: cellular polyribosome profiles. The assay is classed as cell-based. The settings on record: 30 min treatment. The method, then:
Cellular polyribosome profiles. 293T cells were treated as indicated for 30 min. Cells were washed twice with ice-cold PBS and pipetted for 5 min in 500 μl of chilled TMK100 buffer (20 mM Tris-HCl pH 7.4, 5 mM MgCl2 100 mM KCl, 2 mM DTT, 1% Triton X-100 and 100 U/ml RNAsin in DEPC water). After clearing at 10,000×g (10 min) at 4° C., the supernatant (S10) was layered onto 11 ml, 15-45% linear sucrose gradient containing 20 mM HEPES pH 7.4, 100 mM KCl, 5 mM MgCl2 and 2 mM DTT. Ultracentrifugation at 40,000 rpm for 1.5 h at 4° C. was performed in a suitable rotor. Fractions were collected from the top of the gradient by injection of Flurinert FC-40 from bottom of centrifuge tube. Gradient profiles were monitored at 254 nm. For immunoblotting, 7 mg of total protein were processed as described above, followed by collection of 500 μl fractions were collected from the top. 100 μl aliquots of each were boiled in SDS sample buffer, followed by SDS-PAGE and immunoblotting.

Assay [1] has as its system cap-dependent translation. The assay can be described thus: in vitro translation in RRL, bicistronic reporter, cap-dependent cistron. Type of assay: biochemical, rabbit. The note with it: HCV IRES bicistronic reporter. How it is done:
In vitro Translation and Transcription. pSP/(CAG)33/FF/HCV/Ren·pA51 and pKS/FF/EMC/Ren were linearized by BamHI, then purified by phenol:chloroform extraction and ethanol precipitation, and dissolved in water. pSP/(CAG)33/FF/HCV/Ren·A51 and pKS/FF/EMC/Ren were individually transcribed using a large scale RNA production system in the presence of m7Gppp cap analog followed by incubation with DNase as described by the manufacturer. Resulting RNA was purified using a kit as described by the manufacturer. Translation was performed using a rabbit reticulocyte lysate system as per instructions. Briefly, 200 ng of purified RNA was combined in a 20 μl reaction containing 10 μl RRL, 0.2 μl each of minus Met and minus Leu amino acid mixtures, 70 mM KCl, 2 mM DTT, 1× translation buffer, and 10 units of RNasin. Compounds or DMSO were added to a final DMSO concentration of 2%. Reactions were incubated at 30° C. for 1.5 h, then 5 μl of the reaction mixture was assayed for luciferase activity as per instructions of luciferas reporter assay system.

Bounds are passed on as bounds.

For orientation: IC50 means the midpoint of a concentration-inhibition curve. A high value points to weaker potency in that assay.

In the assay with RKO cells, `CC(/C=C/C(C)=C/[C@@H]1Cc2nc(cs2)[C@@H](C)CC(NCC(=O)NCCOCCOCCNC(=O)CCCC[C@@H]2SCC3NC(=O)NC32)CC(=O)O[C@@H](C)C/C(C)=C/C=C\C(=O)O1)=C\CN(C)C` (some centres unmarked) [B-PatA, Biotin-PEO-Pateamine A] registered a half-maximal inhibitory concentration (IC50) of less than 15 nM.

Take arsenite: the stress granule formation entry with HeLa cells is recorded as “eIF4B co-localized with TIA-1 in stress granules”. For the compound `C[C@@H]1C[C@@H]([C@H](O)CC2CC(=O)NC(=O)C2)C(=O)[C@@H](C)C1` [CHX, cycloheximide], the stress granule formation entry in the assay with HeLa cells is on record as “did not induce stress granule formation”. The “effect on polysome profile” value in the assay on 293T cells was “did not perturb the sucrose gradient profile”. Besides, in assay [1], the “inhibition of cap- versus HCV IRES-dependent translation” value is given as “nearly equal inhibition”.

These data come from patent publication US8841285B2, “Potent immunosuppressive agents, derivatives and uses” (priority 2002, dated 2014).
